Results as given in patent US12084411B2, “Hinokitiol analogues, methods of preparing and pharmaceutical compositions thereof” (The Board of Trustees of the University of Illinois, priority 2018, dated 2024).
Marks after values point to notes of the source that are not given here.

Experiments:
[1] = WST-8 toxicity in J774 cells; format: cell-based, mouse; settings: mouse, wild type J774 cells; Wild Type J774, WST-8 assay after ≥24 hours of incubation
Experimental: (§2) Determination of small molecule-mediated toxicity in Caco-2, MEL, and/or J774 cells was performed according to manufacturer instructions using a WST-8 kit (Cayman Chemical 10010199) similar to previously reported (76) using a 1000× stock of the indicated small molecule in DMSO to give the indicated final concentration.

J774 = assay: WST-8 toxicity in J774 cells; format: cell-based, mouse; settings: J774 macrophages
Experimental: as §2

TMEM14CΔ MEL cells = assay: Hemoglobinization of TMEM14C-deficient MEL cells; format: cell-based, mouse; settings: 1 μM
Experimental: (§1) Cells were then incubated at 37° C. for 72 hours unless otherwise noted. […] Hemoglobinized MEL cells were quantified three days after DMSO induction through o-dianisidine staining similar to previously reported (74). Cells were centrifuged three days after induction and rinsed with PBS. […] Cells were then imaged on an AXIO Zoom […] microscope to obtain color images. The number of stained cells were then quantified via ImageJ analysis and compared to the number of total cells in each image. To determine that hinokitiol requires DMSO induction for hemoglobinization, 2% DMSO was not added at the beginning of the experiment before a 72-hour incubation and o-dianisidine staining.

[2] = test system: wild type J774 macrophages; assay: 55Fe release from wild type J774 macrophages; format: cell-based, mouse; settings: same concentration as in deficient system
Experimental: J774 cells were grown in 12-well plates to ˜80% confluency. The cells were then treated with vehicle or hepcidin in fresh J774 Complete media (1 mL) and incubated at 37° C. for 1 hour. After incubation, the media was aspirated, and then a ^55Fe2Tf (50 nM) solution in J774 Complete media (1 mL) containing vehicle or hepcidin was added. The cells were incubated at 37° C. for 10 minutes, and the media was removed. The cells were rinsed with PBS (×2), and then rinsed with J774 Complete media (1 mL) for 10 minutes at 37° C. The media was aspirated, and J774 Complete media (1 mL) containing DMSO or small molecule (5 μM unless otherwise noted, 1000X dilution) was then added in the presence or absence of hepcidin. At the indicated times, aliquots (<100 μL) of the media were removed, diluted in scintillation cocktail, and radioactivity was determined by liquid scintillation counting. After completion of the experiment, the media was removed, the cells were rinsed with PBS, and the cells were lysed with 500 μL of 200 mM NaOH at 37° C. for 2 hours with continuous shaking (50 rpm). The cell lysate was diluted in scintillation cocktail and intracellular ^55Fe levels were determined by liquid scintillation counting. The % ^55Fe release was determined by the ratio of extracellular ^55Fe to total (intracellular+ extracellular) ^55Fe at the indicated times.

[3] = Iron (III) binding affinity, EDTA or citrate competition assay; settings: for KA for iron (III): EDTA competition (citrate for maltol), pH 7.0
Experimental: Specifically, the association constant for iron (II) was determined by a ferrozine competition assay (KA of ferrozine=3.65×10^15) (60). FeCl2 (25 μM) was pre-mixed with ferrozine (75 μM) in a 25 mM MES/Tris buffer at pH=7.0 containing 62.5 mM sodium ascorbate. Then increasing concentrations of small molecule (from 40X stocks in DMSO) were added to the indicated final concentrations. The solutions were allowed to equilibrate for 24 hours before reading of the absorbance at 562 nm. […] The system was allowed to equilibrate overnight, and the absorbance corresponding to the Fe(chelator)3 complex was determined. The EC50 values for each chelator were calculated by a nonlinear curve fit (Hill1) on OriginPro by plotting the absorbance vs. concentration of titrant, and the KA for each complex was determined from the equation: KA, ligand=(KA, competitor*[EC50])/[ligand] where the ligand is the molecule originally bound to iron, and the competitor is the competing chelator.

fet3Δftr1Δ yeast = assay: Metal selectivity in yeast (ICP-MS); format: cell-based, Saccharomyces cerevisiae; settings: 10 μM hinokitiol, 100 μM FeCl3
Experimental: Hinokitiol-mediated changes in intracellular metal levels were determined using growth rescue conditions from FIG. 13H and an adaptation of the Fe uptake study in FIG. 1G. Specifically, wild type and fet3Δftr1Δ yeast were grown in YPD media overnight, rinsed, and incubated in SD media without FeCl3 at 30° C. for 3 hours. Yeast were then resuspended at an OD600=0.50 in SD media (50 mM MES/Tris, pH=7.0) containing 100 μM FeCl3 and either DMSO vehicle or 10 μM hinokitiol. After 2.5 hours of incubation, cells were centrifuged at 5° C., rinsed twice with cold 10 mM EDTA in 50 mM Tris/HCl buffer (pH=6.5), and once with cold metal-free water. Cells were then lyophilized for 48 hours. The lyophilized cells were digested with a 5:1 mixture of HNO3:HCl and then subjected to an automated sequential microwave digestion in a CEM Discover SP-D microwave digester. The resulting clear solution was diluted in metal-free water, and elemental analysis was performed by ICP-MS.

ferritin = target: T1, ferritin (Homo sapiens, UniProt P02792+P02794); assay: Removal of 55Fe from ferritin; format: biochemical; settings: buffered solution, 2.5 ng ferritin/mL
T1 construct: endogenous in cells; host or cells: wild type Caco-2 monolayers (human, ATCC HTB-37); immunoprecipitated with anti-FTL1 on Protein G PLUS-Agarose beads
T1 sequence (P02792 2-175 limits assumed): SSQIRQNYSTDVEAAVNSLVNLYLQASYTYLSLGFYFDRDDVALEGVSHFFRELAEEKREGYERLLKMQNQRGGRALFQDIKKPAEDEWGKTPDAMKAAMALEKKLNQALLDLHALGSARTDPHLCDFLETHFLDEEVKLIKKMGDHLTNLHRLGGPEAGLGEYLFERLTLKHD
T1 sequence (P02794 whole entry): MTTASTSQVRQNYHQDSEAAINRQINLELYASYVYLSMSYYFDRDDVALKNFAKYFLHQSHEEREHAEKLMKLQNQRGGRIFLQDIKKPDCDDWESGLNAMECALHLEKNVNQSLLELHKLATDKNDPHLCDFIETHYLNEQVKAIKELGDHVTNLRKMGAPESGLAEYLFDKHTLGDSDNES
Experimental: The immunoprecipitated ferritin was diluted to 2.5 ng ferritin/mL (determined by ELISA as described below) in 50 mM MES/Tris buffer at pH=7.0, and increasing concentrations of hinokitiol were added (from 1000X stock in DMSO) to give the final indicated concentrations. The suspension was mixed at room temperature for 2 hours.

FPN-deficient mice = assay: Acute injection of hinokitiol in flatiron mice, tissue iron; format: in vivo; settings: 4 hours
Experimental: FIGS. 26A-26E show the results of acute injection of Hinokitiol in flatiron mice. Wild-type (+/+) and I (ffe/+) mice were administered hinokitiol by IP injection and were sacrificed after 4 h to measure iron content. (A) presents means f SEM (n=48/group). (B)-(E) present means±SEM (n=2/group). * P≤0.05, ** P≤0.005, and *** P≤0.001.
To characterize the effects of hinokitiol on iron mobilization and distribution in flatiron mice, hinokitiol was administered with increasing doses (1-50 mg/kg) via intraperitoneal (IP) injection. Mice were euthanized 4 hours post-administration, and blood and a range of tissues were collected. […] Total iron in a variety of tissues including liver and spleen was further measured by inductively coupled plasma mass spectrometry (ICP-MS).

normal MEL cells = assay: Hemoglobinization of normal MEL cells; format: cell-based, mouse; settings: same concentration as in deficient system
Experimental: as §1

CC(C)c1cccc(=O)c(O)c1 [hinokitiol]
EC90 [1]: > 100 µM | observable toxicity (J774): without observable toxicity | hemoglobinization (TMEM14CΔ MEL cells): did not promote hemoglobinization | effect on iron release in wild type system [2]: negligible effects | KA for iron (III) [3]: 5.8×10^25 | KA for iron (III) ([3]; listed as Hinokitiol): 5.8 × 10^25 | pFe^III ([3]; estimated from known pFe of EDTA (citrate for maltol)): 23.7^† | intracellular iron levels relative to vehicle-treated controls (fet3Δftr1Δ yeast): increased | intracellular levels of manganese, cobalt, nickel, zinc, and copper (fet3Δftr1Δ yeast): unchanged | excess of hinokitiol relative to ferritin needed to remove iron (ferritin): > 1,000,000 fold | liver total iron (ICP-MS) (FPN-deficient mice; 10 mg/kg IP): releases iron from the liver | liver non-heme iron (FPN-deficient mice; 1-50 mg/kg IP): dose-dependent decrease | non-heme iron in other tissues (FPN-deficient mice; IP): suggestive of reductions in non-heme iron | effect on hemoglobinization in wild type system (normal MEL cells): negligible effects
